Read-outs that look alike come from different tables or passages of the source.
How the values were obtained:
[1] = system: 1a Pi-Rluc replicon with Q30R in genotype 1a NS5A; assay: microbe, parasite or virus in culture; type: cell-based, HCV; settings: Hepatitis C virus
Outline: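 Renilla luciferase replicon assay: 1a Pi-RLuc replicon carrying NS5A Q30R, transfected transiently into cured-51 (Huh-7-derived) cells.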

[2] = system: stable HCV 2a JFH-1 Rluc replicon cells (L31 present in NS5A); assay: microbe, parasite or virus in culture; type: cell-based; settings: Hepatitis C virus
[3] = system: stable HCV 1a RLuc replicon cells (genotype 1a H77 replicon); assay: microbe, parasite or virus in culture; type: cell-based; settings: Hepatitis C virus
[4] = system: NS5A chimeric genotype 1b Con1 replicon with genotype 4a ED43 strain NS5A gene; assay: microbe, parasite or virus in culture; type: cell-based, HCV; settings: Hepatitis C virus
[5] = system: NS5A chimeric genotype 2a JFH-1 replicon with genotype 2a J6 strain NS5A gene (M31 present); assay: microbe, parasite or virus in culture; type: cell-based, HCV; settings: Hepatitis C virus
[6] = system: NS5A chimeric genotype 2a JFH-1 replicon with genotype 2b MD2b-1 strain NS5A gene (M31 present); assay: microbe, parasite or virus in culture; type: cell-based, HCV; settings: Hepatitis C virus
Outline: (§1)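 Con1 1b replicons carrying 3a S52 or 4a ED43 NS5A with Pi-RLuc reporter were transiently transfected into Huh-Lunet cells; 2b MD2b-1 NS5A (M31) in JFH-1 2a backbone with RLuc-Neo, transient or stable.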

[7] = system: NS5A chimeric genotype 1b Con1 replicon with genotype 3a S52 strain NS5A gene; assay: microbe, parasite or virus in culture; type: cell-based, HCV; settings: Hepatitis C virus
Outline: as §1

[8] = IV and PO single dose pharmacokinetic studies in SD rats; type: in vivo; settings: male, Sprague-Dawley, rat, plasma, IV infusion 1 mg/kg vs oral gavage 2 mg/kg, read-out: Rat % F
Experimental: IV and PO Single Dose Pharmacokinetic Studies in SD Rats: The pharmacokinetics of selected compounds was characterized in male Sprague-Dawley (SD) rats (250-300g). […] The intravenous (IV) dosing vehicle was 5% ethanol, 35% polyethylene glycol 400 (PEG 400) and 60% water pH 2.0. […] Serial blood samples (approximately 0.3 mL each) were collected from jugular vein or other suitable vein at specified time points. […] The blood samples were collected into Vacutainer™ tubes containing EDTA-K3 as the anti-coagulant and were centrifuged at approximately 4° C. to obtain plasma. The plasma samples were stored at −20° C. until analysis by LC/MS/MS. A bioanalytical method utilizing high performance liquid chromatography coupled to tandem mass spectrometry (LC/MS/MS) was developed for analysis of the selected compound in rat plasma. Detection was performed using selected reaction monitoring (SRM); […] Standard curve and quality control samples were prepared in male rat plasma and processed in the same way as the test samples to generate quantitative data. Pharmacokinetic parameters were generated using non-compartmental pharmacokinetic analysis (Phoenix WinNonlin, version 6.3). Values below the lower limit of quantification (LLOQ) were assigned a value of zero if predose and treated as missing thereafter. Area under the curve (AUC) was calculated using the linear trapezoidal rule. The oral bioavailability (% F) was determined by comparison of the area under the curve (AUC) of the compound and/or a metabolite generated in plasma following oral administration to that generated following intravenous administration.

Structure (SMILES): COC[C@H]1C[C@@H](c2nc3ccc4cc5c(cc4c3[nH]2)OCc2cc(-c3cnc([C@@H]4C[C@H](C)CN4C(=O)[C@@H](NC(=O)OC)C(C)C)[nH]3)ccc2-5)N(C(=O)[C@H](NC(=O)OC)c2ccccc2)C1 [Example MN, methyl {(2S)-1-[(2S,4S)-2-(5-{2-[(2S,4S)-1-{(2R)-2-[(methoxycarbonyl)amino]-2-phenylacetyl}-4-(methoxymethyl)pyrrolidin-2-yl]-1,11-dihydroisochromeno[4′,3′:6,7]naphtho[1,2-d]imidazol-9-yl}-1H-imidazol-2-yl)-4-methylpyrrolidin-1-yl]-3-methyl-1-oxobutan-2-yl}carbamate]
- EC50 ([1]; read-out: 1a Q30R): < 1 nM
- EC50 ([1]; read-out: 1a Q30R (nM)): 0.018 nM
- EC50 ([2]; read-out: 2a JFH): < 1 nM
- EC50 ([2]; read-out: 2a JFH (nM)): 0.008 nM
- EC50 ([3]; read-out: 1a): < 1 nM
- EC50 ([3]; read-out: 1a (nM)): 0.014 nM
- EC50 ([4]; read-out: 4a): < 1 nM
- EC50 ([4]; read-out: 4a (s) (nM)): 0.007 nM
- EC50 ([4]; read-out: 4a (t) (nM)): 0.024 nM
- EC50 ([5]; read-out: 2a J6): < 1 nM
- EC50 ([5]; read-out: 2a J6 (s) (nM)): 0.071 nM
- EC50 ([5]; read-out: 2a Jb (t) (nM)): 0.017 nM
- EC50 ([6]; read-out: 2b): < 1 nM
- EC50 ([6]; read-out: 2b (s) (nM)): 0.04 nM
- EC50 ([6]; read-out: 2b (t) (nM)): 0.013 nM
- EC50 ([7]; read-out: 3a): < 1 nM
- EC50 ([7]; read-out: 3a (nM)): 0.034 nM
- bioavailability [8]: 1.5%

Structure (SMILES): COC[C@H]1C[C@@H](c2nc3ccc4cc5c(cc4c3[nH]2)OCc2cc(-c3cnc([C@@H]4C[C@H](C)CN4C(=O)[C@@H](NC(=O)OC)C(C)C)[nH]3)ccc2-5)N(C(=O)[C@@H](NC(=O)OC)C(C)C)C1 [Example MO, methyl {(2S)-1-[(2S,4S)-2-(5-{2-[(2S,4S)-1-{(2S)-2-[(methoxycarbonyl)amino]-3-methylbutanoyl}-4-methoxymethylpyrrolidin-2-yl]-1,11-dihydroisochromeno[4′,3′:6,7]naphtho[1,2-d]imidazol-9-yl}-1H-imidazol-2-yl)-4-methylpyrrolidin-1-yl]-3-methyl-1-oxobutan-2-yl}carbamate]
- EC50 ([1]; read-out: 1a Q30R): < 1 nM
- EC50 ([1]; read-out: 1a Q30R (nM)): 0.052 nM
- EC50 ([2]; read-out: 2a JFH): < 1 nM
- EC50 ([2]; read-out: 2a JFH (nM)): 0.007 nM
- EC50 ([3]; read-out: 1a): < 1 nM
- EC50 ([3]; read-out: 1a (nM)): 0.013 nM
- EC50 ([4]; read-out: 4a): < 1 nM
- EC50 ([4]; read-out: 4a (s) (nM)): 0.018 nM
- EC50 ([4]; read-out: 4a (t) (nM)): 0.022 nM
- EC50 ([5]; read-out: 2a J6): < 1 nM
- EC50 ([5]; read-out: 2a J6 (s) (nM)): 0.471 nM
- EC50 ([5]; read-out: 2a Jb (t) (nM)): 0.089 nM
- EC50 ([6]; read-out: 2b): < 1 nM
- EC50 ([6]; read-out: 2b (s) (nM)): 0.427 nM
- EC50 ([6]; read-out: 2b (t) (nM)): 0.137 nM
- EC50 ([7]; read-out: 3a): < 1 nM
- EC50 ([7]; read-out: 3a (nM)): 0.051 nM
- bioavailability [8]: 7.46%

Structure (SMILES): COC[C@H]1C[C@@H](c2ncc(-c3ccc4c(c3)COc3cc5c(ccc6nc([C@@H]7C[C@H](C)CN7C(=O)[C@@H](NC(=O)OC)C(C)C)[nH]c65)cc3-4)[nH]2)N(C(=O)[C@H](NC(=O)OC)c2ccccc2)C1 [Example NM, Methyl {(1R)-2-[(2S,4S)-2-(5-{2-[(2S,4S)-1-{(2S)-2-[(methoxycarbonyl)amino]-3-methylbutanoyl}-4-methylpyrrolidin-2-yl]-1,11-dihydroisochromeno[4′,3′:6,7]naphtho[1,2-d]imidazol-9-yl}-1H-imidazol-2-yl)-4-(methoxymethyl)pyrrolidin-1-yl]-2-oxo-1-phenylethyl}carbamate]
- EC50 ([1]; read-out: 1a Q30R): < 1 nM
- EC50 ([1]; read-out: 1a Q30R (nM)): 0.028 nM
- EC50 ([2]; read-out: 2a JFH): < 1 nM
- EC50 ([2]; read-out: 2a JFH (nM)): 0.006 nM
- EC50 ([3]; read-out: 1a): < 1 nM
- EC50 ([3]; read-out: 1a (nM)): 0.011 nM
- EC50 ([5]; read-out: 2a J6): < 1 nM
- EC50 ([5]; read-out: 2a Jb (t) (nM)): 0.012 nM
- EC50 ([6]; read-out: 2b): < 1 nM
- EC50 ([6]; read-out: 2b (t) (nM)): 0.013 nM
- EC50 ([7]; read-out: 3a): < 1 nM
- EC50 ([7]; read-out: 3a (nM)): 0.024 nM
- bioavailability [8]: 6.93%

Structure (SMILES): COC[C@H]1C[C@@H](c2ncc(-c3ccc4c(c3)COc3cc5c(cc3-4)CCc3nc([C@@H]4CC[C@H](C)N4C(=O)[C@@H](NC(=O)OC)C(C)C)[nH]c3-5)[nH]2)N(C(=O)[C@H](NC(=O)OC)c2ccccc2)C1 [Example OH, methyl {(1R)-2-[(2S,4S)-2-(5-{2-[(2S,5S)-1-{(2S)-2-[(methoxycarbonyl)amino]-3-methylbutanoyl}-5-methylpyrrolidin-2-yl]-1,4,5,11-tetrahydroisochromeno[4′,3′:6,7]naphtho[1,2-d]imidazol-9-yl}-1H-imidazol-2-yl)-4-(methoxymethyl)pyrrolidin-1-yl]-2-oxo-1-phenylethyl}carbamate]
- EC50 ([1]; read-out: 1a Q30R): < 1 nM
- EC50 ([1]; read-out: 1a Q30R (nM)): 0.031 nM
- EC50 ([2]; read-out: 2a JFH): < 1 nM
- EC50 ([2]; read-out: 2a JFH (nM)): 0.007 nM
- EC50 ([3]; read-out: 1a): < 1 nM
- EC50 ([3]; read-out: 1a (nM)): 0.016 nM
- EC50 ([5]; read-out: 2a J6): < 1 nM
- EC50 ([5]; read-out: 2a Jb (t) (nM)): 0.054 nM
- EC50 ([6]; read-out: 2b): < 1 nM
- EC50 ([6]; read-out: 2b (s) (nM)): 0.022 nM
- EC50 ([6]; read-out: 2b (t) (nM)): 0.023 nM
- EC50 ([7]; read-out: 3a): < 1 nM
- EC50 ([7]; read-out: 3a (nM)): 0.026 nM
- bioavailability [8]: 22.7%

Structure (SMILES): COC[C@H]1C[C@@H](c2nc3ccc4cc5c(cc4c3[nH]2)OCc2cc(-c3cnc([C@@H]4CC[C@H](C)N4C(=O)[C@@H](NC(=O)OC)C(C)C)[nH]3)ccc2-5)N(C(=O)[C@@H](NC(=O)OC)[C@@H](C)OC)C1 [Example OM, Methyl {(2S)-1-[(2S,4S)-2-(5-{2-[(2S,5S)-1-{(2S,3R)-3-methoxy-2-[(methoxycarbonyl)amino]butanoyl}-4-(methoxymethyl)pyrrolidin-2-yl]-1,11-dihydroisochromeno[4′,3′:6,7]naphtho[1,2-d]imidazol-9-yl}-1H-imidazol-2-yl)-5-methylpyrrolidin-1-yl]-3-methyl-1-oxobutan-2-yl}carbamate]
- EC50 ([1]; read-out: 1a Q30R): < 1 nM
- EC50 ([1]; read-out: 1a Q30R (nM)): 0.035 nM
- EC50 ([2]; read-out: 2a JFH): < 1 nM
- EC50 ([2]; read-out: 2a JFH (nM)): 0.009 nM
- EC50 ([3]; read-out: 1a): < 1 nM
- EC50 ([3]; read-out: 1a (nM)): 0.014 nM
- EC50 ([5]; read-out: 2a J6): < 1 nM
- EC50 ([5]; read-out: 2a Jb (t) (nM)): 0.045 nM
- EC50 ([6]; read-out: 2b): < 1 nM
- EC50 ([6]; read-out: 2b (s) (nM)): 0.054 nM
- EC50 ([6]; read-out: 2b (t) (nM)): 0.053 nM
- EC50 ([7]; read-out: 3a): < 1 nM
- EC50 ([7]; read-out: 3a (nM)): 0.035 nM
- bioavailability [8]: 12.2%

Structure (SMILES): COC[C@H]1C[C@@H](c2nc3c([nH]2)-c2cc4c(cc2CC3)-c2ccc(-c3cnc([C@@H]5CC[C@H](C)N5C(=O)[C@@H](NC(=O)OC)C(C)C)[nH]3)cc2CO4)N(C(=O)[C@H](NC(=O)OC)c2ccccc2)C1 [Example OP, Methyl {(1R)-2-[(2S,4S)-2-(9-{2-[(2S,5S)-1-{(2S)-2-[(methoxycarbonyl)amino]-3-methylbutanoyl}-5-methylpyrrolidin-2-yl]-1H-imidazol-5-yl}-1,4,5,11-tetrahydroisochromeno[4′,3′:6,7]naphtho[1,2-d]imidazol-2-yl)-4-(methoxymethyl)pyrrolidin-1-yl]-2-oxo-1-phenylethyl}carbamate]
- EC50 ([1]; read-out: 1a Q30R): < 1 nM
- EC50 ([1]; read-out: 1a Q30R (nM)): 0.026 nM
- EC50 ([2]; read-out: 2a JFH): < 1 nM
- EC50 ([2]; read-out: 2a JFH (nM)): 0.008 nM
- EC50 ([3]; read-out: 1a): < 1 nM
- EC50 ([3]; read-out: 1a (nM)): 0.013 nM
- EC50 ([5]; read-out: 2a J6): < 1 nM
- EC50 ([5]; read-out: 2a Jb (t) (nM)): 0.018 nM
- EC50 ([6]; read-out: 2b): < 1 nM
- EC50 ([6]; read-out: 2b (s) (nM)): 0.007 nM
- EC50 ([6]; read-out: 2b (t) (nM)): 0.011 nM
- EC50 ([7]; read-out: 3a): < 1 nM
- EC50 ([7]; read-out: 3a (nM)): 0.027 nM
- bioavailability [8]: 15.1%

Structure (SMILES): CC[C@H](C)[C@H](NC(=O)OC)C(=O)N1[C@@H](C)CC[C@H]1c1ncc(-c2ccc3c(c2)COc2cc4c(ccc5nc([C@@H]6C[C@H](COC)CN6C(=O)[C@H](NC(=O)OC)c6ccccc6)[nH]c54)cc2-3)[nH]1 [Example OW]
- EC50 ([1]; read-out: 1a Q30R): < 1 nM
- EC50 ([1]; read-out: 1a Q30R (nM)): 0.019 nM
- EC50 ([2]; read-out: 2a JFH): < 1 nM
- EC50 ([2]; read-out: 2a JFH (nM)): 0.006 nM
- EC50 ([3]; read-out: 1a): < 1 nM
- EC50 ([3]; read-out: 1a (nM)): 0.009 nM
- EC50 ([5]; read-out: 2a J6): < 1 nM
- EC50 ([5]; read-out: 2a Jb (t) (nM)): 0.009 nM
- EC50 ([6]; read-out: 2b): < 1 nM
- EC50 ([6]; read-out: 2b (t) (nM)): 0.008 nM
- EC50 ([7]; read-out: 3a): < 1 nM
- EC50 ([7]; read-out: 3a (nM)): 0.013 nM
- bioavailability [8]: 13.3%

— patent US8575135B2 (Gilead Sciences, Inc., priority 2011, dated 2013)
